# Measurements taken from article PMC8847198, “The Influence of AA29504 on GABAA Receptor Ligand Binding Properties and Its Implications on Subtype Selectivity” (Neurochemical Research, 2021).
# Read-outs that look alike come from different tables or passages of the source.
# Experiments:
# [1] = target: recombinant α1β2γ2 GABAARs expressed in HEK293 cells (Rattus norvegicus, UniProt P18508+P62813+P63138); assay: AA29504 effect on [^3H]muscimol binding, recombinant α1β2γ2; conditions: α1β2γ2, HEK293, 4 concentrations of AA29504
# Chain of recombinant α1β2γ2 GABAARs expressed in HEK293 cells (P62813 28-455): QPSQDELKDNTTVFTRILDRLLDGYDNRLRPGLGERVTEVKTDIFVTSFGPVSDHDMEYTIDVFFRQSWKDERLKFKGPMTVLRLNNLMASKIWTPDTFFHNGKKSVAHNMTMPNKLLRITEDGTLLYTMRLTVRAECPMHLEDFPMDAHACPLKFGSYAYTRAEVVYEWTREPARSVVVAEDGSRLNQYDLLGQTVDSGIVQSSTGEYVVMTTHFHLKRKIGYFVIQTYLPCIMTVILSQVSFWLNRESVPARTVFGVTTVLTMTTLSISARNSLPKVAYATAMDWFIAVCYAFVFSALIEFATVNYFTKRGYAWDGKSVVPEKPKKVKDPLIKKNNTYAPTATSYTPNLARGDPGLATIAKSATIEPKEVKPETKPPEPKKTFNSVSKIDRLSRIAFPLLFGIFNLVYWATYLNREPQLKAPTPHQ
# Chain of recombinant α1β2γ2 GABAARs expressed in HEK293 cells (P63138 25-474): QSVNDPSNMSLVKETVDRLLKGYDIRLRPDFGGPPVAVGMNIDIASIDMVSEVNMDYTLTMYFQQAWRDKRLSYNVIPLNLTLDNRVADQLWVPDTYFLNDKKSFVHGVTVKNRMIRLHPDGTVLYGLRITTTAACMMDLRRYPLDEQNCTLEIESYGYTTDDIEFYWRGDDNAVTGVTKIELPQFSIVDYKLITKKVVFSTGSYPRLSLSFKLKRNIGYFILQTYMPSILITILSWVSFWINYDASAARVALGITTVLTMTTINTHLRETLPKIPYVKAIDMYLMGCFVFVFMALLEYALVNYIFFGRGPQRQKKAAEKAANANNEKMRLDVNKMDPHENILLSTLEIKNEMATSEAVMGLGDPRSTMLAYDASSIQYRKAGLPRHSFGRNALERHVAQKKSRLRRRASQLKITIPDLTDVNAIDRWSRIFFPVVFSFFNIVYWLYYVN
# Chain of recombinant α1β2γ2 GABAARs expressed in HEK293 cells (P18508 39-466): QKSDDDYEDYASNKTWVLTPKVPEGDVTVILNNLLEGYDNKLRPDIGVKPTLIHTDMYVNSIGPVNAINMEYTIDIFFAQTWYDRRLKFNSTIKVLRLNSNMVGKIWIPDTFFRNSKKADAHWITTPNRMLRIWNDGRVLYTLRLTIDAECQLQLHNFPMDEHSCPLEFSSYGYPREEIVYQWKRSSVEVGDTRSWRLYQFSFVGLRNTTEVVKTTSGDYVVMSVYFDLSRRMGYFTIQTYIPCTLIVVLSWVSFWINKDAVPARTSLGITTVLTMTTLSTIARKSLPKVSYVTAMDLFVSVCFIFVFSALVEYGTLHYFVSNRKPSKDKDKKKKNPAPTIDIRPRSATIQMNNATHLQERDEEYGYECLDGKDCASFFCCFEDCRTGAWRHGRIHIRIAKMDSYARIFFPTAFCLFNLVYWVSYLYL
# Description: (§6) Human embryonic kidney (HEK) 293 cells were maintained at + 37 °C/10% CO2 in Dulbecco’s Modified Eagle’s Medium (DMEM) (Gibco, Gaithersburg, MD, USA), supplemented with 3.7 g/L NaHCO3, 10% Fetal Bovine Serum (FBS) (Gibco, Gaithersburg, MD, USA), 50,000 U/L penicillin and 50 mg/L streptomycin (Sigma-Aldrich, St Louis, MO, USA). The cells were divided and plated on 10 cm culture dishes for binding assays 24 h before transfection. HEK293 cells were transfected with rat cDNAs (α1, α6, β2, β3, γ2S, δ) in pRK5 plasmids [39] under the control of cytomegalovirus (CMV) promoter using calcium phosphate transfection method essentially as described by Lüddens and Korpi [40]. The plasmids were used in 1:1 and 1:1:1 ratios for transfections containing 2 [(α6) + (β3)] or 3 [(α1 or α6) + (β2 or β3) + (γ2S or δ)] different subunits, respectively (5 μg of each plasmid DNA for a 10 cm plate). The cells were incubated at 37 °C/10% CO2 for 24 h post-transfection. Old culture medium was replaced with fresh medium and the incubation resumed for another 24 h. The cells were harvested 48 h post-transfection. […]
# (§7) Individually pooled triplicate membrane samples (3 total binding and 3 non‐specific binding) were incubated with shaking for 15 min. The effect of AA29504 on binding was determined in the presence of various concentrations of AA29504. […]
# [2] = system: native GABAARs expressed in WT mice forebrain membranes; assay: AA29504 effect on [^3H]GABA binding, WT forebrain membranes; set-up: species or system mouse; conditions: increasing concentrations of AA29504, 15 min, 22 °C
# Description: (§1) WT and δKO forebrain membranes were prepared using the method of Squires and Saederup as modified by Uusi-Oukari et al.. Homogenized and washed membranes were suspended in 10 mM Tris–HCl, pH 7.4 and stored at -70 °C.
# [3] = target: T1, recombinant α6β3γ2 GABAARs expressed in HEK293 cells (Rattus norvegicus, UniProt P18508+P30191+P63079); assay: GABA-independent displacement of [^3H]EBOB binding, recombinant α6β3γ2
# T1 construct: expressed in transfected cells; host or cells: HEK293, transient calcium phosphate transfection, pRK5 plasmids, 1:1:1
# T1 sequence (P30191 20-453): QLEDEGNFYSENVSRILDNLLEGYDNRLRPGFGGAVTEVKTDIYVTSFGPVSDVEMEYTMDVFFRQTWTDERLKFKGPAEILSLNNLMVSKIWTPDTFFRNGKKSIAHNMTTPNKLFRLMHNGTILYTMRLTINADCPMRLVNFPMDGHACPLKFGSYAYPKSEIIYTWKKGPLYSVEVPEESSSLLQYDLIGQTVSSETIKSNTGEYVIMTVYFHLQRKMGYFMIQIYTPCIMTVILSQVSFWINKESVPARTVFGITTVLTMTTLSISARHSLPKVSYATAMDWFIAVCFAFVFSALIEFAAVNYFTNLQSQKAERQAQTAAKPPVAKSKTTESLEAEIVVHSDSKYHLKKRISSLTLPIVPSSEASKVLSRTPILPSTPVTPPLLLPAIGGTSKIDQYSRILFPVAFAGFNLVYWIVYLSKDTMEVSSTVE
# T1 sequence (P63079 26-473): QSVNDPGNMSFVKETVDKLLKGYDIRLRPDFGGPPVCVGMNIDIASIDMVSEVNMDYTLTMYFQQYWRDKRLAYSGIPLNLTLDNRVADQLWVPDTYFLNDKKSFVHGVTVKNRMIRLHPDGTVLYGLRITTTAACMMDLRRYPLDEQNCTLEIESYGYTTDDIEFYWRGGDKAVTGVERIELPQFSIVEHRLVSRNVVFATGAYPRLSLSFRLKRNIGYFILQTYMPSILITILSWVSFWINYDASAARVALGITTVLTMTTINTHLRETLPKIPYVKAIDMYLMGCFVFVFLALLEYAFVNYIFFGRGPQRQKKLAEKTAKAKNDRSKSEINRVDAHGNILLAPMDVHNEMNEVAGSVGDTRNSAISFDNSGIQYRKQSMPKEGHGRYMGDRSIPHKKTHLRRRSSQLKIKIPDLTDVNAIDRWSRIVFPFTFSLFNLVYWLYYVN
# T1 sequence (P18508 39-466): as the sequence (P18508 39-466) above
# Description: (§2) Triplicate samples were incubated with shaking for 2 h. […] The incubations were terminated as described above for [^3H]muscimol binding.
# (§3) GraphPad Prism software (GraphPad, San Diego, CA, USA) was used for nonlinear least squares curve-fitting and statistical testing of association, dissociation, saturation binding and radioligand displacement data. The association and dissociation curves were used for the estimation of association (Kon) and dissociation (Koff) rate constants. Saturation binding curves were used for the estimation of total number of high-affinity binding sites (Bmax), and equilibrium dissociation constants (KD). […] Statistical comparisons were made with One-way ANOVA, Two-way ANOVA or Brown-Forsythe and Welch ANOVA followed by the relevant (Tukey’s or Dunnett’s) post hoc tests for multiple comparisons. […] The study samples were not randomized and analysis was performed in a parallel unblinded mode.
# [4] = system: native GABAARs expressed in WT mice forebrain membranes; assay: AA29504 effect on [^3H]muscimol binding, WT forebrain membranes; set-up: species or system mouse; conditions: increasing concentrations of AA29504, 15 min, 22 °C
# Description: as §1
# [5] = target: recombinant α6β2γ2 GABAARs expressed in HEK293 cells (Rattus norvegicus, UniProt P18508+P30191+P63138); assay: AA29504 effect on [^3H]muscimol binding, recombinant α6β2γ2; conditions: α6β2γ2, HEK293, 4 concentrations of AA29504
# Chain of recombinant α6β2γ2 GABAARs expressed in HEK293 cells (P30191 20-453): as the sequence (P30191 20-453) above
# Chain of recombinant α6β2γ2 GABAARs expressed in HEK293 cells (P63138 25-474 limits assumed): as the sequence (P63138 25-474) above
# Chain of recombinant α6β2γ2 GABAARs expressed in HEK293 cells (P18508 39-466): as the sequence (P18508 39-466) above
# Description: as §6, §7
# [6] = set-up: method as in PMID 20060846, PMID 22579928, PMID 20957350; conditions: 60 min post 2 mg/kg, s.c. in mice; cited from earlier work
# [7] = system: GABAARs in δKO forebrain membranes; assay: [^3H]muscimol association and dissociation, δKO forebrain membranes; format: binding, mouse
# Description: as §1
# (§4) The effect of AA29504 on the association and dissociation of [^3H]muscimol binding was measured essentially as described by Benkherouf et al.. Saturation analysis of [^3H]muscimol was performed essentially as described by Uusi-Oukari and Korpi. Triplicate samples of the membranes were incubated in assay buffer with a concentration series of [^3H]muscimol (1–50 nM) at room temperature (22 °C) for 60 min in the absence and presence of 10 µM AA29504. […] .
# (§5) GraphPad Prism software (GraphPad, San Diego, CA, USA) was used for nonlinear least squares curve-fitting and statistical testing of association, dissociation, saturation binding and radioligand displacement data. The association and dissociation curves were used for the estimation of association (Kon) and dissociation (Koff) rate constants. Saturation binding curves were used for the estimation of total number of high-affinity binding sites (Bmax), and equilibrium dissociation constants (KD). […] . Statistical comparisons were made with One-way ANOVA, Two-way ANOVA or Brown-Forsythe and Welch ANOVA followed by the relevant (Tukey’s or Dunnett’s) post hoc tests for multiple comparisons. […] . The study samples were not randomized and analysis was performed in a parallel unblinded mode.
# [8] = system: native GABAARs expressed in δKO mice forebrain membranes; assay: AA29504 effect on [^3H]muscimol binding, δKO forebrain membranes; set-up: species or system mouse; conditions: increasing concentrations of AA29504, 15 min, 22 °C
# Description: as §1
# [9] = system: GABAARs in WT forebrain membranes; assay: [^3H]muscimol association and dissociation, WT forebrain membranes; format: binding, mouse
# Description: as §1, §4, §5
# [10] = target: T2, recombinant α6β3 GABAARs expressed in HEK293 cells (Rattus norvegicus, UniProt P30191+P63079); assay: GABA-independent displacement of [^3H]EBOB binding, recombinant α6β3
# T2 construct: expressed in transfected cells; host or cells: HEK293, transient calcium phosphate transfection, pRK5 plasmids
# T2 sequence (P30191 20-453): as the sequence (P30191 20-453) above
# T2 sequence (P63079 26-473): as the sequence (P63079 26-473) above
# Description: as §2, §3
# [11] = target: T3, recombinant α6β3δ GABAARs expressed in HEK293 cells (Rattus norvegicus, UniProt P18506+P30191+P63079); assay: GABA-independent displacement of [^3H]EBOB binding, recombinant α6β3δ
# T3 construct: expressed in transfected cells; host or cells: HEK293, transient calcium phosphate transfection, pRK5 plasmids, 1:1:1
# T3 sequence (P30191 20-453): as the sequence (P30191 20-453) above
# T3 sequence (P63079 26-473): as the sequence (P63079 26-473) above
# T3 sequence (P18506 17-449 limits assumed): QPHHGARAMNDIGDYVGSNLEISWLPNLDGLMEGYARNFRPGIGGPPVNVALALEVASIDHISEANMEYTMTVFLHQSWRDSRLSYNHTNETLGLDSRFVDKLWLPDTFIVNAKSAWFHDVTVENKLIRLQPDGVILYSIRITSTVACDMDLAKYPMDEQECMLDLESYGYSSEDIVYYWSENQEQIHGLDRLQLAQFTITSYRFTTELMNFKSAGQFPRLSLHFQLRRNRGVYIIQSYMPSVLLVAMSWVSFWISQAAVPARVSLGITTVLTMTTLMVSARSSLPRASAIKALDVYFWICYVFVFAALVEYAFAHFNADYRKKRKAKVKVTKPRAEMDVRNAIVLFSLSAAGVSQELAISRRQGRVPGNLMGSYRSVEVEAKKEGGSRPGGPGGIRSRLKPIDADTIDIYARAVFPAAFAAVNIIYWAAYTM
# Description: as §2, §3
# [12] = system: native GABAARs expressed in δKO mice forebrain membranes; assay: AA29504 effect on [^3H]GABA binding, δKO forebrain membranes; set-up: species or system mouse; conditions: increasing concentrations of AA29504, 15 min, 22 °C
# Description: as §1
# [13] = target: recombinant α6β2δ GABAARs expressed in HEK293 cells (Rattus norvegicus, UniProt P18506+P30191+P63138); assay: AA29504 effect on [^3H]muscimol binding, recombinant α6β2δ; conditions: HEK293, 4 concentrations of AA29504
# Chain of recombinant α6β2δ GABAARs expressed in HEK293 cells (P30191 20-453): as the sequence (P30191 20-453) above
# Chain of recombinant α6β2δ GABAARs expressed in HEK293 cells (P63138 25-474 limits assumed): as the sequence (P63138 25-474) above
# Chain of recombinant α6β2δ GABAARs expressed in HEK293 cells (P18506 17-449 limits assumed): as the sequence (P18506 17-449 limits assumed) above
# Description: as §6, §7
# [14] = set-up: method as in PMID 31736685; conditions: in vivo; cited from earlier work
# [15] = system: native GABAARs expressed in δKO forebrain membranes; format: binding, mouse; conditions: read-out: IC50 of agonist-induced [^3H]EBOB displacement
# Description: as §1, §2, §3
# [16] = system: native GABAARs expressed in WT forebrain membranes; format: binding, mouse; conditions: read-out: IC50 of agonist-induced [^3H]EBOB displacement
# Description: as §1, §2, §3
# [17] = target: GABAARs in δKO mouse forebrain membranes; assay: Saturation analysis of [^3H]muscimol binding, δKO forebrain membranes; conditions: one-site model
# Description: as §1, §4
# as §5, with “The study samples were not randomized and analysis was performed in a parallel unblinded mode.” left out
# [18] = target: GABAARs in WT mouse forebrain membranes; assay: Saturation analysis of [^3H]muscimol binding, WT forebrain membranes
# Description: as §1, §4, §5
# [19] = 10 µM AA29504, 2 nM [^3H]muscimol, control binding without AA29504
# [20] = 2 nM [^3H]muscimol, 22 °C, absence of AA29504
smiles,measurement,setting,value
"CCOC(=O)Nc1ccc(NCc2c(C)cc(C)cc2C)cc1N [AA29504, [2-amino-4-(2,4,6-trimethylbenzylamino)-phenyl]-carbamic acid ethyl ester]",effect on 2 nM [^3H]muscimol binding,[1],stimulated
same,effect on 5 nM [^3H]GABA binding,[2],concentration-dependent stimulation
same,concentration at which GABA-independent radioligand displacement was evident,"[3]; α6β3γ2, 1 nM [^3H]EBOB",≥ 300 nM
same,IC50,"[3]; α6β3γ2, HEK293, 1 nM [^3H]EBOB, no GABA",11100 ± 1400 nM
same,effect on 2 nM [^3H]muscimol binding,[4],concentration-dependent stimulation
same,effect on 2 nM [^3H]muscimol binding,[5],stimulated
same,brain concentration,[6],1000 nM
same,maximal increased specific [^3H]muscimol binding,[7]; [19],240 ± 23 % of control binding
same,effect on 2 nM [^3H]muscimol binding,[8],concentration-dependent stimulation
same,maximal increased specific [^3H]muscimol binding,[9]; [19],166 ± 5 % of control
same,concentration at which GABA-independent radioligand displacement was evident,"[10]; α6β3, 1 nM [^3H]EBOB",≥ 100 nM
same,IC50,"[10]; α6β3, HEK293, 1 nM [^3H]EBOB, no GABA",400 ± 20 nM
same,concentration at which GABA-independent radioligand displacement was evident,[11]; 1 nM [^3H]EBOB,≥ 100 nM
same,IC50,"[11]; HEK293, 1 nM [^3H]EBOB, no GABA",1100 ± 200 nM
same,effect on 5 nM [^3H]GABA binding,[12],concentration-dependent stimulation
same,effect on 2 nM [^3H]muscimol binding,[13],no significant effect
"O=C(Nc1c(-c2cccs2)nc2ccccn12)c1ccc(Cl)cc1 [DS2, 4-chloro-N-[2-(2-thienyl)imidazo[1,2-a]pyridin-3-yl]benzamide]",brain bioavailability,[14],limited brain bioavailability
"Oc1noc2c1CCNC2 [THIP, 4,5,6,7-tetrahydroisoxazolo[5,4-c]pyridin-3-ol]",IC50,[15],220000 ± 50000 nM
same,IC50,[16],200000 ± 110000 nM
[3H]C([3H])(N)c1cc(=O)[nH]o1 [[^3H]muscimol],Kd,"[17]; with AA29504 (10 µM), 22 °C",30 ± 3 nM
same,Kd,"[17]; without AA29504, 22 °C",53 ± 6 nM
same,Kd,"[18]; with AA29504 (10 µM), 22 °C, one-site model, read-out: KD",23 ± 4 nM
same,Kd,"[18]; without AA29504, 22 °C, read-out: KD, site (1) of two-site model",4.1 ± 3.6 nM
same,Kd,"[18]; without AA29504, 22 °C, read-out: KD, site (2) of two-site model (converted)",40 nM
same,association rate constant Kon,[7]; [20],5.9 ± 0.6 × 10^8 M^−1 × min^−1
same,dissociation rate constant Koff,[7]; [20],0.011 ± 0.0005 s⁻¹
same,association rate constant Kon,[9]; [20],2.2 ± 0.3 × 10^8 M^−1 × min^−1
same,dissociation rate constant Koff,[9]; [20],0.00633 ± 0.00033 s⁻¹
